In the test the test system is C57bl/6J Mice. In words: GPR120 C57bl6 Mouse IPGTT. The test is classed as in vivo. The following applies: 30.0 mg/kg, dosed 30 minutes prior to glucose (IP 1.5 g/kg). On the procedure: Male, C57bl/6J Mice were ordered in at 8 weeks of age from Jackson Labs. Individual mice weighed anywhere in the range of 25-30 grams on study day. The mice were fasted, with removal of food occurring at 7 am on the morning of the study. Animals were moved into the room at 10:00 am, to give them time to acclimate. Glucose (insulin syringes) was drawn up either the night before or the morning of the study. Glucose was dosed (IP) at 1.5 g/kg at 7.5 ml/kg (20% glucose straight TEKNOVA, 250 ml sterile bottle w/ catalogue number G0525). Test compounds were kept spinning and were only drawn into the syringes prior to study commencement. Animals were bled via tail snip to determine basal glucose levels prior to dosing of treatments. An Ascensia BREEZE Blood Glucose Monitoring System by Bayer (using unique 10-test disks) was used for determining glucose levels. The bleeds started at approximately 12:45 pm and dosing started, at 1-minute intervals, immediately after. All groups were dosed 30 minutes prior to glucose administration at a dose volume of 10 ml/kg (the dose volume was calculated separately for each individual animal). Thirty minutes after the first dose animals were bled again for a second baseline, or T=0, and immediately dosed with glucose via an i.p. injection. The exact dose volume for glucose was also calculated separately for each individual animal. […]

As to `Cc1c(CCC(=O)O)ccc(OCc2cccn2-c2ccc(Cl)cc2)c1C` [Compound 1, 3-(4-{[1-(4-Chlorophenyl)-1H-pyrrol-2-yl]methoxy}-2,3-dimethylphenyl)propanoic acid], the “GPR120 C57bl6 Mouse IPGTT Results” value is recorded as “not different”.

The record behind these values is patent publication US9045454B2, “Bicyclic pyrrole derivatives useful as agonists of GPR120” (Janssen Pharmaceutica NV, priority 2013, dated 2015).
